{"source": "patent US20070087988A1", "about": "“Hematopoietic progenitor kinase 1 for modulation of an immune response” (New York University, priority 2005, published 2007)", "key": {"[1]": {"system": "murine HPK1", "test": "IVK assay of HA-tagged murine HPK1 (wild type and mutants) transfected into Jurkat cells", "type": "cell-based, mouse", "conditions": "Jurkat transfectants", "description": "The pcDNA3 vector containing mouse cDNA encoding the HA-tagged wild type murine HPK1 and a proline-rich-deleted construct were constructed by Dr. F. Kiefer (Liu et al., 2000, J. Immunol. 165:1417). QuickChange™ mutagenesis system was used to alter the wild type HPK1 construct to encode the desired point mutations (Stratagene, La Jolla, Calif.). Mutated constructs were sequenced to verify the presence of the desired mutation and for the absence of PCR-generated mutations.\nJurkat T cells (1.5×10^7) were transfected as described in (Chang et al., 1998, Mol. Cell. Biol. 18:4986). Whole cell lysates derived from resting or stimulated transfectants were subjected to immunoprecipitations by the indicated antibodies, and were subjected to in vitro kinase reactions as described in (Kiefer et al., 1996, EMBO J. 15:7013 and (Sawasdikosol et al., 2003, Blood 101:3687). Anti-murine HPK1 #7 antibody was used to detect the ectopically expressed HPK wild type and mutant murine HPK1.\nTo assess the role of the proline-rich motifs in PGE2-induced HPK1 activation, cells were transfected with constructs that encoded either the HA-tagged wild type HPK1 or a mutant form in which the P1, P2, and P4 proline-rich motifs (HA-ΔP-HPK1) were deleted (FIG. 8A). Transfectants were left untreated, stimulated by 10 pM of PGE2, or stimulated by TCR crosslinking. The ectopically expressed HPK1 proteins were subjected to anti-HA immunoprecipitation and were subjected to IVK assay. […] This limits the possibility that adapter proteins play a role in this process.\nTo assess the importance of arginine 168, arginine 169 and serine 171 in PGE2-induced HPK1 activation, a panel of mutant HPK1 expression constructs that encode a point mutation at each of these amino acids was created. In these mutants, arginines were changed to lysines and serine was changed to alanine. These mutant HPK1 constructs were transfected into Jurkat cells and the ectopically expressed HA-tagged HPK1 were immunoprecipitated from resting or PGE2 stimulated cells."}, "[2]": {"system": "tyrosine phosphorylation", "test": "Anti-phosphotyrosine immunoblotting of Jurkat lysates and HPK1 immunoprecipitates", "type": "cell-based, human", "conditions": "10 pM PGE2", "procedure": "Cells were lysed in a buffer containing 1% Nonidet P-40 (NP-40) and 50 mM Tris, pH 7.6, 150 mM NaCl, 1 mM […], 10 mM NaF, 10 mM sodium pyrophosphate, 10 μg/ml each of aprotinin and leupeptin, and 2 mM phenylmethylsulfonyl fluoride (PMSF). The lysates were pre-cleared with protein A-Sepharose™ and subsequently, proteins were immunoprecipitated with either 2 μg of anti-Crk antibody or an equal amount of normal rabbit Ig by incubation at 4° C. for two hours. The beads were washed with 0.1% NP-40 in immunoprecipitation wash buffer (150 mM NaCl, 20 mM HEPES, pH 7.4, 10% glycerol, 1 mM […], 5 mM NaF, and 10 μg/ml each of aprotinin and leupeptin), and the bead-bound proteins were separated by SDS-PAGE. The proteins were transferred to a polyvinylidene fluoride (PVDF) membrane, immunoblotted with the indicated antibodies and developed by the enhanced chemiluminescence (ECL) system (Amersham Corp., Arlington Heights, Ill.).\nIt has been reported that binding of PGE2 to its GPCR leads to rapid activation of HPK1 kinase activity (Sawasdikosol et al., 2003, Blood 101:3687). […] First, it was assessed whether PGE2 stimulation would induce general tyrosine phosphorylation in the Jurkat T cell line was examined. […]"}, "[3]": {"system": "HPK1", "test": "HPK1 IVK assay in primary splenocytes / T lymphocytes", "type": "cell-based, mouse", "conditions": "primary T lymphocytes (C57BL/6 splenocytes), 10 nM PGE2, 5 min", "procedure": "Splenocytes from wild type C57BL/6 were harvested, lysed with RBC lysis buffer (Sigma) and stimulated with 1 μg/ml plate bound anti-CD3 and anti-CD28 or 10 nM PGE2 alone (Calbiochem) for 5 min. at 37° C. Whole cell lysates were subjected to immunoprecipitation with anti-HPK1 antibodies #5 and #6, then subjected to IVK as described in Kiefer et al. (1996, EMBO J. 15:7013-7025). Anti-HPK1 antibody #2 was used as a blotting antibody.\nSplenocytes from wild type C57BL/6 were harvested, lysed with RBC lysis buffer (Sigma) and stimulated with 1 μg/ml plate bound anti-CD3 and 1 μg/ml soluble anti-CD28 or with 10 nM PGE2 (Calbiochem) for 5 min. at 37° C. Whole cell lysates were subjected to immunoprecipitation with anti-HPK1 antibodies #5 and #6 and then subjected to IVK as described (1). Anti-HPK1 antibody #2 was used as a blotting antibody."}, "[4]": {"system": "T cells", "test": "IL-2 production by ELISA of T cell supernatants", "type": "cell-based, mouse", "procedure": "Supernatants from the proliferation assay were collected for ELISA prior to addition of ^3H-thymidine. The protocol used for ELISA followed the instructions from BD Pharmingen.\nSupernatants from the proliferation assay were collected for ELISA prior to addition of ^3H thymidine. For profiling experiments, supernatants were collected as above, with variable time points. […] Cells were then washed with PBS, re-seeded in fresh medium and stimulated with 2 μg/ml plate bound anti-CD3 and 1 μg/ml soluble anti-CD28 for eight hours and supernatants were collected for analysis. Protocol used for ELISA follows BD Pharmingen instructions."}, "[5]": {"system": "T cells", "test": "Apoptosis of TCR-stimulated T cells, annexin V / 7AAD staining", "type": "cell-based, mouse"}, "[6]": {"conditions": "Example 4, ELISA, addition of PGE2"}, "[7]": {"conditions": "Example 7, 3 day TCR stimulated cells, ELISA, 1 nM PGE2"}}, "data": [{"compound": "CCCCC[C@H](O)/C=C/[C@H]1[C@H](O)CC(=O)[C@@H]1C/C=C\\CCCC(=O)O", "note": "[PGE2, prostaglandin E2]", "values": [{"measurement": "kinase response of HA-HPK1 (wild type)", "setting": "[1]; 10 pM PGE2", "value": "responded competently"}, {"measurement": "kinase response of HPK1 proline-rich deleted mutant (HA-ΔP-HPK1)", "setting": "[1]; 10 pM PGE2", "value": "responded to PGE2 stimulation"}, {"measurement": "kinase response of HPK1 serine 171 to alanine mutant to PGE2", "setting": "[1]; PGE2 stimulated", "value": "ablated the response"}, {"measurement": "reduction of responsiveness to PGE2 stimulation, HPK1 arginine to lysine mutation at residue 168 or 169", "setting": "[1]; PGE2 stimulated", "value": "approximately 90%"}, {"measurement": "global tyrosine phosphorylation level", "setting": "[2]; Jurkat whole cell lysates", "value": "no detectable change"}, {"measurement": "tyrosine phosphorylation of HPK1", "setting": "[2]; immunoprecipitated HPK1, Jurkat", "value": "did not induce detectable tyrosine phosphorylation"}, {"measurement": "increase in HPK1 kinase activity", "setting": "[3]", "value": "three-fold"}, {"measurement": "percentage of IL-2 inhibition, HPK1−/− T cells", "setting": "[4]; [6]", "value": "~30", "unit": "%"}, {"measurement": "percentage of IL-2 inhibition, wild type T cells", "setting": "[4]; [6]", "value": "~84", "unit": "%"}, {"measurement": "inhibition of IL-2 production, HPK1−/− T cells", "setting": "[4]; [7]", "value": "~26", "unit": "%"}, {"measurement": "inhibition of IL-2 production, wild type cells", "setting": "[4]; [7]", "value": "~88", "unit": "%"}, {"measurement": "wild type cells undergoing apoptosis (annexin V)", "setting": "[5]; three days of TCR stimulation with PGE2, 47% in cells not treated with PGE2", "value": "over 75%"}, {"measurement": "rate of HPK1−/− T cell apoptosis", "setting": "[5]; three days of TCR stimulation, addition of PGE2", "value": "did not significantly increase"}]}]}
